According to article PMC10115881, “Disrupting the α-synuclein-ESCRT interaction with a peptide inhibitor mitigates neurodegeneration in preclinical models of Parkinson’s disease” (Nature Communications, 2023):

Test system: WT a-syn-mediated cytotoxicity in HEK293 cells
Test: Pooled lentiviral 7-mer peptide cytotoxicity screen, WT a-syn + MG132;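 for Slope Norm Reads: reads normalized to total peptide reads per sample with scalar factor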
Type: cell-based, human
Description: We used a lentiviral library of 50,549 7-mer peptides enriched in PPI motifs[13] on a green fluorescent protein (GFP) scaffold (Fig. 1A). We infected cells in a pooled format and the amino acid sequence of each peptide served as its own barcode. By using a low multiplicity of infection followed by puromycin selection, each infected cell expressed one unique GFP-peptide. We screened for peptides that reduced a-syn-mediated cytotoxicity or a-syn oligomers in parallel (Fig. 1A). To cause cytotoxicity relevant to PD, we induced proteostatic stress in HEK293 cells by inhibiting the proteasome with MG132 and overexpressing human WT a-syn associated with idiopathic PD in one screen or the more toxic mutant A53T a-syn associated with familial PD in a second screen. This combination of a-syn overexpression and pharmacological proteasome inhibition led to death of most cells, with only those that expressed a protective peptide surviving. By extracting genomic DNA from the surviving cells and amplifying the peptide coding sequences, we identified the protective peptides (Fig. 1A). To detect a-syn oligomers, we used a protein fragment complementation assay (PCA) of a-syn oligomerization in HEK293 cells. In this assay, human A53T a-syn was fused to either the C- or N-terminal half of yellow fluorescent protein (YFP). No fluorescence is detectable while a-syn exists in monomers but, when a-syn oligomerizes, the two halves of YFP come in close enough proximity to form a functional, spontaneously fluorescent protein. […] Our screens yielded 10 hits (Table S1). The hit with the most reads (i.e., the most abundant) was the same peptide in all screens: IPIQLKA (named PDpep1) (Table S1). We validated the cytoprotective effects of PDpep1 in HEK293 cells overexpressing WT or A53T a-syn (Figs. 1B, S1A), as well as its ability to reduce WT or A53T a-syn oligomers in a luciferase-based PCA[18]–[20] compared to a scrambled control peptide (Figs. 1C, S1B).
HEK293T cells (ATCC, CRL-3216) were maintained in DMEM supplemented with 10% FBS and 1% pen/strep/glutamine, and the appropriate selection antibiotics when required. Lentiviruses were made in a 15 cm dish format by transfecting packaging cells (HEK293T) with a three-plasmid system (expression vector, psPAX2 and pMD2.G) and using Polyjet DNA transfection reagent (FroggaBio, SL100688.1). Viral transduction of HEK293T cells were performed with a multiplicity of infection (MOI) of 0.3. Infected cells were selected in puromycin-containing medium to eliminate uninfected cells and three aliquots of cells were collected for sampling of the initial (T0) cell population. Cells were treated with MG132 at concentrations of 0, 10, 25, or 50 µM. For the cell viability screen, surviving cells were collected and gDNA was extracted for identification of peptide inhibitors of cell toxicity. For the inhibition of a-syn aggregation screen, a protein fragment complementation assay (PCA) was used by transfecting cells with split YFP-a-syn constructs following stable expression of the peptides. Cells were sorted based on their YFP fluorescence intensities with a FACSVantage SE cell sorter (BD Bioscience) and gDNA was extracted for identification of peptides.
Genomic DNA (gDNA) from peptide expressing cells at different time-points was extracted using QIAamp DNA Blood Mini Kit. PCR amplifications of peptides from gDNA in parallel with the lentiviral plasmid library (naïve library) were performed using indexed Illumina PCR primers to incorporate both the Illumina adapter sequences and indexing sequences. Each 50 μl reaction contained 3.2 μg of template, 2× PCR buffer, 2× enhancer solution, 300 μM each dNTP, 900 nM each of Adapter A (5′-[…]-[…]-3′) and Adapter B (5′-[…]-[…]-3′), 1 mM MgSO4, 3.75 units of Platinum Pfx polymerase, and water to 50 μl. […]

## IPIQLKA [PDpep1, initial screen hit peptide IPIQLKA]
  Reads 10M MG132: 1
  Reads 25M MG132: 1629
  Reads 50M MG132: 3375
  Slope Norm Reads: 3.45
Illumina reads, average Phred >30
  Reads 0M MG132: 90
